Results taken from patent US10940206B2, “Ophthalmic composition comprising lipoic acid and a mucomimetic polymer” (OPHTALMIS MONACO, priority 2015, dated 2021).

Tests used:
[1] = Osmoprotective activity: cell viability (XTT assay) under hyperosmolar stress; format: cell-based, human; details: human, 0 h (pre-osmotic stress, after 17 h preincubation)
Method: (§1) A study was carried out to determine the osmoprotective capacity of sodium lipoate (A) during hyperosmolar stress on human conjunctival (WKD) and corneal (HCE) cells. The osmoprotective activity of A, then A with B and C, was evaluated by measuring cell viability in particular. To that end, cells were preincubated for 17 h with the test substance(s). Next, the medium was removed and the cells were subjected to hyperosmolar stress by addition of sodium chloride (100 mM NaCl) to the culture medium (M199 for the WKD cells and KSFM for the HCE cells). Cellgrowth control cells were contacted with isotonic medium. Cell viability was analyzed preosmotic stress (0 h) in order to measure the effect of the molecules remaining in contact with the cells during the 17 h of incubation, then at 4 h, 8 h and 24 h post-induction of osmotic stress. The cell viability measurement was carried out via an XTT assay. Various concentrations of A were tested for the “molecule alone” tests: 0.0005%, 0.001%, 0.005%, 0.01% and 0.05% w/v. For the molecule mixture tests, the following concentrations were tested: for A: 0.001%, 0.005%, and 0.01% w/v; for B: 0.25% w/v; and for C: 0.5% and 1% w/v. To ensure the validity and the significance of the data, the results obtained were analyzed statistically. The results presented below result from the mean of 3 independent repetitions, carried out on different days.

[2] = tested on: human conjunctival (WKD) and corneal (HCE) cells; test: as above; format: cell-based; details: Homo sapiens, HCE; for viability at 0.0005 % strength: 0.0005% w/v; for viability at 0.001 % strength: 0.001% w/v; for viability at 0.005 % strength: 0.005% w/v; for viability at 0.01 % strength: 0.01% w/v; for viability at 0.05 % strength: 0.05% w/v
Method: as §1

[3] = 4 h post-induction of osmotic stress (100 mM NaCl)
[4] = 8 h post-induction of osmotic stress (100 mM NaCl)
[5] = 24 h post-induction of osmotic stress (100 mM NaCl)

## O=C(O)CCCCC1CCSS1 (centres unmarked) [sodium lipoate, 5-(1,2dithiolan-3-yl)pentanoic acid]
[1]; 0.0005% w/v
  viability at 17 h, 0.0005 % w/v: 99.9%
[1]; 0.001% w/v
  viability at 17 h, 0.001 % w/v: 98.5%
[1]; 0.005% w/v
  viability at 17 h, 0.005 % w/v: 103%
[1]; 0.01% w/v
  viability at 17 h, 0.01 % w/v: 98.1%
[1]; 0.05% w/v
  viability at 17 h, 0.05 % w/v: 56.3%
[2]; [3]
  viability at 0.0005 % strength: 62.7%
  viability at 0.001 % strength: 69.6%
  viability at 0.005 % strength: 109%
  viability at 0.01 % strength: 120%
  viability at 0.05 % strength: 46%
[2]; [4]
  viability at 0.0005 % strength: 38.5%
  viability at 0.001 % strength: 42.4%
  viability at 0.005 % strength: 76.1%
  viability at 0.01 % strength: 82.9%
  viability at 0.05 % strength: 27.8%
[2]; [5]
  viability at 0.0005 % strength: 18.8%
  viability at 0.001 % strength: 18.5%
  viability at 0.005 % strength: 12.6%
  viability at 0.01 % strength: 8.9%
  viability at 0.05 % strength: 2.7%
